# Experimental data from BindingDB's records for doi:10.1021/jm000271k (Parke-Davis Pharmaceutical Research, 2000).
# Biological target: Cyclin-dependent kinase 4/G1/S-specific cyclin-D1 [L188C] (Homo sapiens, UniProt P11802)
# Assay: CDKs Assay
# Settings: not given
# Experimental: The enzyme was assayed with substrate GST- retinoblastoma in the presence of 25 uM ATP/[gamma-32P] ATP. IC50 is the inhibitor concentration, which inhibits 50% of enzyme activity that catalyzes the transfer of the terminal phosphate from [gamma-32P] labeled ATP to GST- retinoblastoma. Use of 32P-labeled ATP allows this transfer to be monitored by scintillation counting.
row,Structure (SMILES),IC50 [nM]
1,"CCCn1c(=O)ccc2cnc(Nc3ccccc3)nc21 [2-(phenylamino)-8-propyl-7H,8H-pyrido[2,3-d]pyrimidin-7-one]",553
2,"CCN(CC)CCOc1ccc(Nc2ncc3ccc(=O)n(C(C)C)c3n2)cc1 [2-({4-[2-(diethylamino)ethoxy]phenyl}amino)-8-(propan-2-yl)-7H,8H-pyrido[2,3-d]pyrimidin-7-one]",45
3,"O=c1ccc2cnc(Nc3ccccc3)nc2n1C1CC2CCC1C2 (configuration not stated) [8-Bicyclo[2.2.1]hept-2-yl-2-phenylamino-8H-pyrido[2,3-d]pyrimidin-7-one]",38
4,"CCCCn1c(=O)ccc2cnc(Nc3ccccc3)nc21 [8-Butyl-2-phenylamino-8H-pyrido[2,3-d]pyrimidin-7-one]",1490
5,"O=c1ccc2cnc(Nc3ccccc3)nc2n1C1CCCCC1 [8-Cyclohexyl-2-phenylamino-8H-pyrido[2,3-d]pyrimidin-7-one]",47

# Next, values leading:
row,IC50 [nM],Structure (SMILES)
1,5480,"Cn1c(=O)ccc2cnc(Nc3ccccc3)nc21 [8-Methyl-2-phenylamino-8H-pyrido[2,3-d]pyrimidin-7-one]"
2,5000,"O=c1ccc2cnc(Nc3ccccc3)nc2n1CC1CO1 (configuration not stated) [8-Oxiranylmethyl-2-phenylamino-8H-pyrido[2,3-d]pyrimidin-7-one]"
3,32,"CC(C)n1c(=O)ccc2cnc(Nc3ccc(N4CCN(C)CC4)cc3)nc21 [8-Isopropyl-2-[4-(4-methylpiperazin-1-yl)phenylamino]-8H-pyrido[2,3-d]pyrimidin-7-one]"
4,85,"CCn1c(=O)ccc2cnc(Nc3ccc(N4CCN(C)CC4)cc3)nc21 [8-Ethyl-2-[4-(4-methylpiperazin-1-yl)phenylamino]-8H-pyrido[2,3-d]pyrimidin-7-one]"
5,940,"O=c1ccc2cnc(Nc3ccccc3)nc2n1Cc1ccccc1 [8-benzyl-2-(phenylamino)-7H,8H-pyrido[2,3-d]pyrimidin-7-one]"
6,300,"CCn1c(=O)ccc2cnc(Nc3ccc(N4CCOCC4)cc3)nc21 [8-Ethyl-2-(4-(morpholin-4-yl)phenylamino)-8H-pyrido[2,3-d]pyrimidin-7-one]"
7,210,"O=c1ccc2cnc(Nc3ccccc3)nc2n1C1CCCC1 [8-cyclopentyl-2-(phenylamino)-7H,8H-pyrido[2,3-d]pyrimidin-7-one]"
8,182,"O=c1ccc2cnc(Nc3ccccc3)nc2n1C1CCCCCC1 [8-cycloheptyl-2-(phenylamino)-7H,8H-pyrido[2,3-d]pyrimidin-7-one]"

# Same assay, conditions: pH 7.4; 25 °C
row,Structure (SMILES),IC50 [nM]
1,"CCn1c(=O)ccc2cnc(NC(C)(C)C)nc21 [2-(tert-butylamino)-8-ethyl-7H,8H-pyrido[2,3-d]pyrimidin-7-one]",5250
2,"CCn1c(=O)ccc2cnc(NC3CCCCC3)nc21 [2-Cyclohexylamino-8-ethyl-8H-pyrido[2,3-d]pyrimidin-7-one]",3300
3,"CCn1c(=O)ccc2cnc(Nc3ccc(N(C)C)cc3)nc21 [2-{[4-(dimethylamino)phenyl]amino}-8-ethyl-7H,8H-pyrido[2,3-d]pyrimidin-7-one]",330
4,"CCn1c(=O)ccc2cnc(Nc3cccc(F)c3)nc21 [8-Ethyl-2-(3-fluorophenylamino)-8H-pyrido[2,3-d]pyrimidin-7-one]",1400
5,"CCN(CC)CCOc1ccc(Nc2ncc3ccc(=O)n(CC)c3n2)cc1 [2-({4-[2-(diethylamino)ethoxy]phenyl}amino)-8-ethyl-7H,8H-pyrido[2,3-d]pyrimidin-7-one]",160

# More lines, now with the values ahead:
row,IC50 [nM],Structure (SMILES)
1,1240,"CCn1c(=O)ccc2cnc(Nc3ccc(F)cc3)nc21 [8-ethyl-2-[(4-fluorophenyl)amino]-7H,8H-pyrido[2,3-d]pyrimidin-7-one]"
2,12000,"CCNc1ncc2ccc(=O)n(CC)c2n1 [8-ethyl-2-(ethylamino)-7H,8H-pyrido[2,3-d]pyrimidin-7-one]"
3,600,"CCn1c(=O)ccc2cnc(Nc3ccc(OC)cc3)nc21 [8-ethyl-2-[(4-methoxyphenyl)amino]-7H,8H-pyrido[2,3-d]pyrimidin-7-one]"
4,7830,"CCn1c(=O)ccc2cnc(Nc3cccc(OC(F)(F)C(F)F)c3)nc21 [8-Ethyl-2-[3-(1,1,2,2-tetrafluoroethoxy)phenylamino]-8H-pyrido[2,3-d]pyrimidin-7-one]"
